From PubChem BioAssay AID651630 (Sanford-Burnham Center for Chemical Genomics, 2012)
The source made the active and inactive calls.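 How the source made its calls: active means lipid-stain IC50 at or below a set limit, with nuclear-stain toxicity IC50 at least five times higher; inactive means the rest.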

How the values were obtained:
TAG = experiment: triacylglycerol accumulation inhibitor potency, dose response, cell-based, panel, Nile Red and DAPI fluorescence, H9c2 (AID 651630); conditions: H9c2 cells, Nile Red TAG fluorescence, oleic acid;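 further: cells exposed to compound overnight before fixation and staining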
DAPI = experiment: as above; conditions: H9c2 cells, DAPI nuclear fluorescence (cytotoxicity counter-readout), oleic acid

Structure (SMILES) | IC50 (TAG; run 1) | IC50 (TAG; run 2) | IC50 (TAG; mean of runs) | IC50 cytotoxicity (DAPI nuclear signal decrease) (DAPI; mean of runs) | IC50 cytotoxicity (DAPI nuclear signal decrease) (DAPI; run 1) | IC50 cytotoxicity (DAPI nuclear signal decrease) (DAPI; run 2)
O=C(Nc1cccc(Cl)c1)c1nc[nH]c1C(=O)NCCCNC(=O)c1[nH]cnc1C(=O)Nc1cccc(Cl)c1 | 9.63 µM | > 25 µM |  | > 25 µM (inactive) | > 25 µM | > 25 µM
COC(=O)C1=C(c2cc3ccccc3s2)C[C@@H]2CC[C@H]1N2C(=O)N1CCOCC1 | > 25 µM | > 25 µM | > 25 µM (inactive) | > 25 µM (inactive) | > 25 µM | > 25 µM
CCCOC(=O)c1ccc(NC(=O)CCOc2ccccc2)cc1 | 18.2 µM | 24.7 µM | 21.5 µM (inactive) | > 25 µM (inactive) | > 25 µM | > 25 µM
NC1=NC[C@H](Cc2ccccc2)N1CCc1cc(C(F)(F)F)cc(C(F)(F)F)c1 | > 25 µM | > 25 µM | > 25 µM (inactive) | > 25 µM (inactive) | > 25 µM | > 25 µM
COc1ccc(C(C(=O)NC(C)(C)C)N(Cc2ccco2)C(=O)CCC(=O)Nc2cc(C)on2)cc1 (stereo not drawn) | 19.9 µM | 18.1 µM | 19 µM (inactive) | > 25 µM (inactive) | > 25 µM | > 25 µM
CN(C)C(=S)N=c1ssc(=S)n1Cc1ccco1 | > 25 µM | > 25 µM | > 25 µM (inactive) | > 25 µM (inactive) | > 25 µM | > 25 µM
CC(C)Cc1nc2sc3c(NCc4ccco4)ncnc3c2c2c1COC(C)(C)C2 | > 25 µM | > 25 µM | > 25 µM (inactive) | > 25 µM (inactive) | > 25 µM | > 25 µM
COc1ccc(-c2sc3ccc(N4CCOCC4)cc3c2C#CC(C)(C)O)cc1 | > 25 µM | > 25 µM | > 25 µM (inactive) | > 25 µM (inactive) | > 25 µM | > 25 µM
Cc1[nH]c2ccccc2c1/C=N/Nc1nc(Nc2ccc(F)cc2)nc(N2CCOCC2)n1 | 21.6 µM | 19.7 µM | 20.6 µM (inactive) | > 25 µM (inactive) | > 25 µM | > 25 µM
Cc1ccc(Sc2cc(N3CCOCC3)nc(-c3ccccc3)n2)cc1 | > 25 µM | > 25 µM | > 25 µM (inactive) | > 25 µM (inactive) | > 25 µM | > 25 µM
CCc1nn2c(N3CCOCC3)cc(C)nc2c1-c1ccc(F)cc1 | > 25 µM | < 0.78 µM |  | > 25 µM (inactive) | > 25 µM | > 25 µM
COc1cc2c3c(c1)c(C1=NC(=S)NC1=O)c(O)n3C(C)(C)C=C2C | 6.7 µM | 5.3 µM | 6 µM | > 25 µM (inactive) | > 25 µM | > 25 µM
CC(C)(C)c1ccc(/C=N/NC(=O)Cc2c[nH]c3ccccc23)cc1 | 16.5 µM | 24.4 µM | 20.5 µM (inactive) | > 25 µM (inactive) | > 25 µM | > 25 µM
C=CC[C@@H](CC(=O)N(CCO)Cc1ccccc1)C(=O)N[C@H](COC(=O)[C@@H](CC=C)CC(=O)OC(C)(C)C)Cc1ccccc1 | 5.71 µM | 6.02 µM | 5.86 µM | > 25 µM (inactive) | > 25 µM | > 25 µM
O=c1cc(-c2ccccc2)[nH]c2ccc(F)cc12 | > 25 µM | > 25 µM | > 25 µM (inactive) | > 25 µM (inactive) | > 25 µM | > 25 µM
CCc1cc2c3c(c1)C1(C(=O)N3C(C)(C)C=C2C)C(C#N)=C(N)Oc2[nH]c(=O)[nH]c(=O)c21 (stereo not drawn) | > 25 µM | > 25 µM | > 25 µM (inactive) | > 25 µM (inactive) | > 25 µM | > 25 µM
C[C@@]12C(=O)Nc3ccc(Br)cc3C(=O)N1[C@H]1c3cc(Cl)ccc3OC[C@@H]1[C@@H]2c1ccccc1 | 9.4 µM | 19.8 µM | 14.6 µM | > 25 µM (inactive) | > 25 µM | > 25 µM
C=CCn1c(SCc2c(C)noc2C)nc2sc3c(c2c1=O)CCC(C)C3 (stereo not drawn) | > 25 µM | > 25 µM | > 25 µM (inactive) | > 25 µM (inactive) | > 25 µM | > 25 µM
O=C(Nc1ccc(/C=C/c2nc3ccccc3o2)cc1)c1c(F)cccc1F | 13.2 µM | 7.82 µM | 10.5 µM | > 25 µM (inactive) | > 25 µM | > 25 µM
CC(C)CC(N)c1csc(NC(=O)Nc2ccccc2Cc2ccccc2)n1 (stereo not drawn) | > 25 µM | > 25 µM | > 25 µM (inactive) |  | 20.4 µM | > 25 µM
O=C(CCl)N(CCCNC(=O)C(F)(F)F)c1ccc([N+](=O)[O-])cc1 | > 25 µM | > 25 µM | > 25 µM (inactive) | > 25 µM (inactive) | > 25 µM | > 25 µM

Further lines, with some results ahead:

IC50 (TAG; run 1) | IC50 (TAG; run 2) | IC50 (TAG; mean of runs) | Structure (SMILES) | IC50 cytotoxicity (DAPI nuclear signal decrease) (DAPI; mean of runs) | IC50 cytotoxicity (DAPI nuclear signal decrease) (DAPI; run 1) | IC50 cytotoxicity (DAPI nuclear signal decrease) (DAPI; run 2)
22.5 µM | > 25 µM |  | C[C@H]1CCCCO[C@H](CN(C)CC2CCCCC2)[C@@H](C)CN([C@@H](C)CO)C(=O)c2cc(NS(=O)(=O)c3ccccc3)ccc2O1 | > 25 µM (inactive) | > 25 µM | > 25 µM
9.56 µM | 22.3 µM | 15.9 µM (inactive) | CCCCOc1ccccc1C1CC(=O)NC2=C1C(=O)CCC2 (stereo not drawn) | > 25 µM (inactive) | > 25 µM | > 25 µM
18.2 µM | 17.9 µM | 18 µM (inactive) | CCOC(=O)C(C)Oc1cccc2c(=O)n(CC(=O)NCc3ccc4c(c3)OCO4)ccc12 (stereo not drawn) | > 25 µM (inactive) | > 25 µM | > 25 µM
23.2 µM | 16.8 µM | 20 µM (inactive) | CN(C)CCCNC(=O)CC1C[C@H](C(=O)N2CCCCC2)[C@@]2(CCc3ccccc3)c3[nH]c4ccccc4c3CCN2C1=O (stereo partly drawn) | > 25 µM (inactive) | > 25 µM | > 25 µM
14 µM | 13.2 µM | 13.6 µM | CCOC(=O)C1=C(C)N(C[C@@H]2CC[C@@H](Cc3ccc(-c4ccccc4)cc3)O2)C(=O)NC1c1cccc2ccccc12 (stereo partly drawn) | > 25 µM (inactive) | > 25 µM | > 25 µM
> 25 µM | > 25 µM | > 25 µM (inactive) | CC(=O)Nc1ccc(NC2=Nc3ccccc3N3C2=Nc2c(c(C)nn2-c2ccccc2)C3c2ccccc2)cc1 (stereo not drawn) | > 25 µM (inactive) | > 25 µM | > 25 µM
> 25 µM | > 25 µM | > 25 µM (inactive) | O=C(Nc1ccncc1)C1CCCN(S(=O)(=O)c2cccc3cccnc23)C1 (stereo not drawn) | > 25 µM (inactive) | > 25 µM | > 25 µM
24.2 µM | 18.6 µM | 21.4 µM (inactive) | O=[N+]([O-])c1ccc(Nc2nc(N3CCOCC3)nc(N3CCOCC3)n2)cc1 | > 25 µM (inactive) | > 25 µM | > 25 µM
6.18 µM | 6.04 µM | 6.11 µM | C=CCn1c(N)c(C(=O)Nc2ccccc2)c2nc3ccccc3nc21 | > 25 µM (inactive) | > 25 µM | > 25 µM
17.5 µM | 13.1 µM | 15.3 µM (inactive) | COc1ccccc1-c1cc(NC=O)c2ncc(-c3cccc(C(=O)N(C)C)c3)n2c1 | > 25 µM (inactive) | > 25 µM | > 25 µM
> 25 µM | > 25 µM | > 25 µM (inactive) | CCn1ncc(/C=N/N=C2\CCC3C4CCc5cc(O)ccc5C4CCC23C)c1C (stereo not drawn) | > 25 µM (inactive) | > 25 µM | > 25 µM
